pEC50: −log10 of the molar value. In brackets after ≈: the same amount, converted by molar mass. *1 amine or outer side, *2 acyl side, *3 side chain or, on linkers, in order; H or OH if unused. Where a SMILES comes first, the peptide text is derived from it. Bridges are numbered along the chain shown (N, C = ends). [ ]: non-standard residue; d: D form. The star is where a group is joined. C20 diacid = O=C(O)CCCCCCCCCCCCCCCCCCC(=O)*; γGlu = O=C(O)[C@H](CCC(=O)[*:2])N[*:1]; AEEA = NCCOCCOCC(=O)O
Assays:
Insulin (Homo sapiens) [1] = biological target: Insulin (Homo sapiens) (UniProt P01308); assay: Effect on insulin (unknown origin) amyloid fibril formation assessed as peptide recovery in glycyl-glycine buffer at pH 4 measured after 45 hrs by thioflavin-T fluorescence assay relative to control; set-up: concentration or dose not given beside the values
Homo sapiens = species: Homo sapiens; assay: Ratio of EC50 for human calcitonin receptor expressed in BHK570 cells to EC50 for human AMY3R (CT+RAMP3) expressed in Hollex1 cells; type: cell-based
Rattus norvegicus [2] = species: Rattus norvegicus; assay: Ratio of EC50 for rat calcitonin receptor expressed in BHK-13 cells to EC50 for rat AMY3R (CT+RAMP3) expressed in tk-ts13 cells; type: cell-based
[3] = Solubility of the compound in bis-tris propane at pH 6.5 by UPLC analysis; type: physicochemical; details: bis-tris propane buffer
[4] = Agonist activity at human AMY3R (CT+RAMP3) expressed in Hollex1 cells incubated for 3 hrs by luminescence assay; type: cell-based; details: Hollex1, 3 h
[5] = Solubility of the compound in lactate at pH 3 by UPLC analysis; type: physicochemical; details: lactate buffer
[6] = Solubility of the compound in bis-tris propane at pH 6 by UPLC analysis; type: physicochemical; details: bis-tris propane buffer
Insulin (Homo sapiens) [7] = biological target: Insulin (Homo sapiens) (UniProt P01308); assay: Effect on insulin (unknown origin) amyloid fibril formation assessed as lag time in glycyl-glycine buffer at pH 4 measured after 45 hrs by thioflavin-T fluorescence assay
[8] = Solubility of the compound in bis-tris propane at pH 7 by UPLC analysis; type: physicochemical; details: bis-tris propane buffer
[9] = Agonist activity at human calcitonin receptor expressed in BHK570 cells assessed as increase in intracellular cAMP concentration incubated for 3 hrs in absence of albumin by CRE luciferase reporter gene assay; type: cell-based; details: BHK570, 3 h
Rattus norvegicus [10] = assay: Reduction in food intake in Sprague-Dawley rat at 3 nmol/kg, sc administered as single dose measured after 24 to 48 hrs relative to control; type: functional; set-up: scale not given: the % may be the effect or the level left; details: time 24-48 hrs
[11] = Solubility of the compound in bis-tris propane at pH 8 by UPLC analysis; type: physicochemical; details: bis-tris propane buffer
[12] = Solubility of the compound in bis-tris propane at pH 7.5 by UPLC analysis; type: physicochemical; details: bis-tris propane buffer
[13] = Solubility of the compound in lactate at pH 5 by UPLC analysis; type: physicochemical; details: lactate buffer
Rattus norvegicus [14] = assay: Reduction in food intake in Sprague-Dawley rat at 3 nmol/kg, sc administered as single dose measured upto 24 hrs relative to control; type: functional; set-up: scale not given: the % may be the effect or the level left; details: time hrs <=24
[15] = Agonist activity at rat calcitonin receptor expressed in BHK-13 cells assessed as increase in intracellular cAMP concentration incubated for 25 mins by CRE luciferase reporter gene assay; type: cell-based; details: BHK-13, 25 min
[16] = Agonist activity at rat AMY3R (CT+RAMP3) expressed in tk-ts13 cells assessed as increase in intracellular cAMP level incuabted for 25 mins by CRE luciferase reporter gene assay; type: cell-based; details: tk-ts13, 25 min
[17] = Solubility of the compound in lactate at pH 4 by UPLC analysis; type: physicochemical; details: lactate buffer

Insulin (Homo sapiens), sequence (P01308 whole entry): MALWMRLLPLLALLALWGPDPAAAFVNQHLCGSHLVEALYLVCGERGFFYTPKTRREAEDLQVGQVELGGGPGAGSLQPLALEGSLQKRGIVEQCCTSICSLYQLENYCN

Row | SMILES | Activity (Insulin (Homo sapiens) [1]) [%] | Ratio EC50 (Homo sapiens) | Ratio EC50 (Rattus norvegicus [2]) | solubility [3] [µM] | pEC50 [4] | solubility [5] [µM] | solubility [6] [µM] | TIME (Insulin (Homo sapiens) [7]) [h] | solubility [8] [µM] | pEC50 [9] | Activity (Rattus norvegicus [10]) [%] | solubility [11] [µM] | solubility [12] [µM] | solubility [13] [µM] | Activity (Rattus norvegicus [14]) [%] | pEC50 [15] | pEC50 [16] | solubility [17] [µM]
1 | CC[C@H](C)[C@H](NC(=O)[C@@H]1CCCN1C(=O)CNC(=O)[C@H](Cc1ccccc1)NC(=O)[C@H](CC(N)=O)NC(=O)[C@H](C)NC(=O)[C@H](CO)NC(=O)[C@H](CO)NC(=O)[C@H](CCCNC(=N)N)NC(=O)[C@H](Cc1cnc[nH]1)NC(=O)[C@H](CC(C)C)NC(=O)[C@H](Cc1ccccc1)NC(=O)[C@H](CCC(=O)O)NC(=O)[C@H](C)NC(=O)[C@H](CC(C)C)NC(=O)[C@H](CCCNC(=N)N)NC(=O)[C@H](CCC(N)=O)NC(=O)[C@@H](NC(=O)[C@H](C)NC(=O)[C@@H]1CSSC[C@H](NC(=O)[C@H](CCCCN)NC(=O)[C@@H](CCCNC(=N)N)NC(=O)[C@@H](CCCNC(=N)N)NC(=O)COCCOCCNC(=O)COCCOCCNC(=O)CC[C@H](NC(=O)CCCCCCCCCCCCCCCCCCC(=O)O)C(=O)O)C(=O)N[C@@H](CC(N)=O)C(=O)N[C@@H]([C@@H](C)O)C(=O)N[C@@H](C)C(=O)N[C@@H]([C@@H](C)O)C(=O)N1)[C@@H](C)O)C(=O)N[C@@H](CC(C)C)C(=O)N1CCC[C@H]1C(=O)N1CCC[C@H]1C(=O)N[C@H](C(=O)N[C@@H](CC(N)=O)C(=O)N[C@H](C(=O)NCC(=O)N[C@@H](CO)C(=O)N[C@@H](CO)C(=O)N[C@H](C(=O)N[C@@H](Cc1ccc(O)cc1)C(N)=O)[C@@H](C)O)C(C)C)[C@@H](C)O ({C20 diacid-γGlu-AEEA-AEEA}-[dR][dR]KCNTATCATQRLAEFLHRSSANFGPILPPTNVGSSTY-NH2; disulfide 4-9) | 94 | 8 | 19 | 200 (≈ 1000 µg/mL) | 9.85 | 200 (≈ 1000 µg/mL) | 200 (≈ 1000 µg/mL) | 45 | 200 (≈ 1000 µg/mL) | 8.97 | 0 | 200 (≈ 1000 µg/mL) | 200 (≈ 1000 µg/mL) | 200 (≈ 1000 µg/mL) | 16 | 8.35 | 9.63 | 200 (≈ 1000 µg/mL)
2 | CC[C@H](C)[C@H](NC(=O)[C@@H]1CCCN1C(=O)CNC(=O)[C@H](Cc1ccccc1)NC(=O)[C@H](CC(N)=O)NC(=O)[C@H](CC(N)=O)NC(=O)[C@H](CO)NC(=O)[C@H](CO)NC(=O)[C@H](Cc1cnc[nH]1)NC(=O)[C@H](Cc1cnc[nH]1)NC(=O)[C@H](CC(C)C)NC(=O)[C@H](Cc1ccccc1)NC(=O)[C@H](CCC(=O)O)NC(=O)[C@H](C)NC(=O)[C@H](CC(C)C)NC(=O)[C@H](CCCNC(=N)N)NC(=O)[C@H](CCC(N)=O)NC(=O)[C@@H](NC(=O)[C@H](C)NC(=O)[C@@H]1CSSC[C@H](NC(=O)[C@H](CCCNC(=N)N)NC(=O)CC[C@H](NC(=O)CC[C@H](NC(=O)CCCCCCCCCCCCCCCCCCC(=O)O)C(=O)O)C(=O)O)C(=O)N[C@@H](CC(N)=O)C(=O)N[C@@H]([C@@H](C)O)C(=O)N[C@@H](C)C(=O)N[C@@H]([C@@H](C)O)C(=O)N1)[C@@H](C)O)C(=O)N[C@@H](CC(C)C)C(=O)N1CCC[C@H]1C(=O)N1CCC[C@H]1C(=O)N[C@H](C(=O)N[C@@H](CC(N)=O)C(=O)N[C@H](C(=O)NCC(=O)N[C@@H](CO)C(=O)N[C@@H](CC(N)=O)C(=O)N[C@H](C(=O)N[C@@H](Cc1ccc(O)cc1)C(N)=O)[C@@H](C)O)C(C)C)[C@@H](C)O ({C20 diacid-γGlu-γGlu}-RCNTATCATQRLAEFLHHSSNNFGPILPPTNVGSNTY-NH2; disulfide 2-7) | 0 | 2 | 5 | 200 (≈ 923 µg/mL) | 9.89 | 200 (≈ 923 µg/mL) | 200 (≈ 923 µg/mL) | 2 | 200 (≈ 923 µg/mL) | 9.69 | 39 | 200 (≈ 923 µg/mL) | 200 (≈ 923 µg/mL) | 200 (≈ 923 µg/mL) | 46 | 8.87 | 9.56 | 200 (≈ 923 µg/mL)
